“And” between values parts separate entries of the source, which are not always exact repeats. Identical values can stand only once.
Legend:
Type in all cases: physicochemical
[1] = Separation of industrially relevant binary mixtures by precipitation using L1, L2 and L3 (Example 10); settings: supernatant
Experimental: Analogous to Example 7), three sets of reaction mixtures with two metals and either compound L1, L2, or L3 were prepared in a 96-well plate with the following differences: each well was equipped with one PTFE-coated magnetic stir bar, the well plate was sealed with a silicon cover, and the reaction mixtures were stirred on a magnetic stirrer for 2 days at room temperature. Analogous to Example 7), the well plate was then centrifuged and concentrations of the metals were determined using ICP-OES. […] It is evident from the results that certain degrees of enrichment are achieved for very different combinations of metals, and that ligands L1, L2, and L3 have different selectivities for given combinations of metals.

[2] = Separation of binary mixture of rare-earth metals by precipitation using L6 (Example 9); settings: supernatant; for [mM] M1: with Nd
[3] = Separation of Y/Tb mixture by repeated precipitation using L2 (Example 14); settings: for Precipitate concentration [mM] Tb / Precipitate concentration [mM] Y: dissolved to 200 μL
Experimental: The experiment was conducted according to Example 11) with 9 identical reaction mixtures containing Y, Tb, and compound L2. The experimental procedure was identical to that of Example 11). The resulting absolute concentrations of both metals in the supernatants and precipitates, as well as calculated values of separation factor Y/Tb according to the formula from Example 11), are summarized in Table 8. The average separation factor value was 3.34.

[4] = group A, 1st precipitation, mean
[5] = group B, 2nd precipitation, mean

## O=C(O)CN1CCNCCN(CC(=O)O)CCN(Cc2ccc(C(=O)O)cc2)CC1 [L3, 2,2′-(4-(4-carboxybenzyl)-1,4,7,10-tetraazacyklododekane-1,7-diyl)Diacetic Acid]
[1]; M1/M2=Eu/Y
  [mM] M1: 0.016 mM
  [mM] M2: 0.076 mM
[1]; M1/M2=La/Ce
  [mM] M1: 0.111 mM
  [mM] M2: 0.036 mM
[1]; M1/M2=Nd/Ce
  [mM] M1: 0.000 mM
  [mM] M2: 0.745 mM
[1]; M1/M2=Nd/Dy
  [mM] M1: 0.000 mM
  [mM] M2: 0.025 mM
[1]; M1/M2=Nd/La
  [mM] M1: 0.000 mM
  [mM] M2: 0.102 mM
[1]; M1/M2=Nd/Pr
  [mM] M1: 0.000 mM
  [mM] M2: 0.016 mM
[1]; M1/M2=Nd/Tb
  [mM] M1: 0.008 mM
  [mM] M2: 0.008 mM
[1]; M1/M2=Pr/Ce
  [mM] M1: 0.060 mM
  [mM] M2: 0.021 mM
[1]; M1/M2=Pr/Dy
  [mM] M1: 0.018 mM
  [mM] M2: 0.034 mM
[1]; M1/M2=Pr/La
  [mM] M1: 0.014 mM
  [mM] M2: 0.098 mM
[1]; M1/M2=Tb/Dy
  [mM] M1: 0.010 mM
  [mM] M2: 0.027 mM
[1]; M1/M2=Tb/Eu
  [mM] M1: 0.018 mM
  [mM] M2: 0.017 mM
[1]; M1/M2=Tb/Pr
  [mM] M1: 0.015 mM
  [mM] M2: 0.018 mM
[1]; M1/M2=Tb/Y
  [mM] M1: 0.018 mM
  [mM] M2: 0.078 mM

## O=C(O)CN1CCN(CC(=O)O)CCN(Cc2ccc(-c3ccccc3)cc2)CCN(CC(=O)O)CC1 [L6, 2,2′,2″-(10-([1,1′-biphenyl]-4-ylmethyl)-1,4,7,10-tetraazacyclododecane-1,4,7-triyl)triacetic acid]
[2]; M1=Ce
  [mM] M1: 0.596 mM
  [mM] Nd: 0.556 mM
[2]; M1=Dy
  [mM] M1: 0.459 mM
  [mM] Nd: 0.135 mM
[2]; M1=Er
  [mM] M1: 2.027 mM
  [mM] Nd: 0.702 mM
[2]; M1=Eu
  [mM] M1: 0.711 mM
  [mM] Nd: 0.566 mM
[2]; M1=Gd
  [mM] M1: 0.195 mM
  [mM] Nd: 0.166 mM
[2]; M1=Ho
  [mM] M1: 1.943 mM
  [mM] Nd: 0.618 mM
[2]; M1=La
  [mM] M1: 0.620 mM
  [mM] Nd: 0.606 mM
[2]; M1=Lu
  [mM] M1: 3.231 mM
  [mM] Nd: 0.841 mM
[2]; M1=Nd
  [mM] M1: 0.496 mM
  [mM] Nd: 0.496 mM
[2]; M1=Pr
  [mM] M1: 0.524 mM
  [mM] Nd: 0.559 mM
[2]; M1=Sc
  [mM] M1: 2.414 mM
  [mM] Nd: 0.594 mM
[2]; M1=Sm
  [mM] M1: 0.541 mM
  [mM] Nd: 0.512 mM
[2]; M1=Tb
  [mM] M1: 0.428 mM
  [mM] Nd: 0.178 mM
[2]; M1=Tm
  [mM] M1: 2.914 mM
  [mM] Nd: 0.748 mM
[2]; M1=Y
  [mM] M1: 1.592 mM
  [mM] Nd: 1.463 mM
[2]; M1=Yb
  [mM] M1: 2.243 mM
  [mM] Nd: 0.495 mM

## O=C(O)CN1CCNCCN(CC(=O)O)CCN(Cc2cc([N+](=O)[O-])ccc2O)CC1 [L2, 2,2′(4-(2-hydroxy-5-nitrobenzyl)-1,4,7,10-tetraazacyclododecane-1,7-diyl)Diacetic Acid]
[3]; group A, 1st precipitation
  Supernatant concentration [mM] Tb: 1.70 mM and 1.85 mM and 1.74 mM
  Supernatant concentration [mM] Y: 4.25 mM and 4.36 mM and 4.12 mM
  Precipitate concentration [mM] Tb: 8.05 mM and 7.82 mM and 7.70 mM
  Precipitate concentration [mM] Y: 5.45 mM and 5.23 mM and 5.52 mM
[3]; [4]
  Precipitate concentration [mM] Tb: 7.86 mM
  Precipitate concentration [mM] Y: 5.40 mM
  Supernatant concentration [mM] Tb: 1.76 mM
  Supernatant concentration [mM] Y: 4.24 mM
[3]; group B, 2nd precipitation
  Supernatant concentration [mM] Tb: 0.79 mM and 1.15 mM and 0.97 mM
  Supernatant concentration [mM] Y: 1.42 mM and 1.52 mM and 1.48 mM
  Precipitate concentration [mM] Tb: 6.95 mM and 5.71 mM and 6.60 mM
  Precipitate concentration [mM] Y: 3.87 mM and 2.86 mM and 3.57 mM
[3]; [5]
  Precipitate concentration [mM] Tb: 6.42 mM
  Precipitate concentration [mM] Y: 3.43 mM
  Supernatant concentration [mM] Y: 1.47 mM
[1]; M1/M2=Eu/Y
  [mM] M1: 1.363 mM
  [mM] M2: 2.814 mM
[1]; M1/M2=La/Ce
  [mM] M1: 0.175 mM
  [mM] M2: 0.158 mM
[1]; M1/M2=Nd/Ce
  [mM] M1: 0.425 mM
  [mM] M2: 0.779 mM
[1]; M1/M2=Nd/Dy
  [mM] M1: 1.757 mM
  [mM] M2: 1.970 mM
[1]; M1/M2=Nd/La
  [mM] M1: 0.263 mM
  [mM] M2: 0.128 mM
[1]; M1/M2=Nd/Pr
  [mM] M1: 2.303 mM
  [mM] M2: 2.352 mM
[1]; M1/M2=Nd/Tb
  [mM] M1: 1.532 mM
  [mM] M2: 1.438 mM
[1]; M1/M2=Pr/Ce
  [mM] M1: 0.162 mM
  [mM] M2: 0.171 mM
[1]; M1/M2=Pr/Dy
  [mM] M1: 2.417 mM
  [mM] M2: 2.422 mM
[1]; M1/M2=Pr/La
  [mM] M1: 0.172 mM
  [mM] M2: 0.163 mM
[1]; M1/M2=Tb/Dy
  [mM] M1: 1.054 mM
  [mM] M2: 2.708 mM
[1]; M1/M2=Tb/Eu
  [mM] M1: 1.182 mM
  [mM] M2: 0.956 mM
[1]; M1/M2=Tb/Pr
  [mM] M1: 1.945 mM
  [mM] M2: 2.156 mM
[1]; M1/M2=Tb/Y
  [mM] M1: 1.615 mM
  [mM] M2: 2.812 mM
